Measurements taken from ChEMBL document CHEMBL4145504, “Jatrophane diterpenoids from Euphorbia sororia as potent modulators against P-glycoprotein-based multidrug resistance” (Eur J Med Chem, 2018).
Calls of active or inactive are those of the source. No cut-off for these calls is given here.

Columns and labels:
[1] = species on record: Homo sapiens; assay: Inhibition of P-gp in human MCF7/ADR cells assessed as potentiation of doxorubicin-induced cytotoxicity at 10 uM after 48 hrs by MTT assay relative to control; assay type: cell-based
[2] = system: MCF7; assay: Cytotoxicity against human MCF7 cells after 48 hrs by MTT assay; assay type: cell-based; conditions: MCF7, 48 h
[3] = system: NCI/ADR-RES; assay: Cytotoxicity against human MCF7/ADR cells after 48 hrs by MTT assay; assay type: cell-based
[4] = Cytotoxicity against human MCF7 cells assessed as cell survival at 10 uM after 48 hrs by MTT assay relative to control; assay type: cell-based; conditions: read-out: Survival
[5] = Cytotoxicity against human MCF7/ADR cells assessed as cell survival at 10 uM after 48 hrs by MTT assay relative to control; assay type: cell-based; conditions: MCF7/ADR cells (NCI/ADR-RES), read-out: Survival
[6] = system: P-gp; assay: Therapeutic index, ratio of IC50 for HEK293 cells to EC50 for inhibition of P-gp in human MCF7/ADR cells assessed as potentiation of doxorubicin-induced cytotoxicity; assay type: toxicity, cell-based; conditions: HEK293 cells (IC50) and MCF7/ADR cells (EC50)
[7] = Inhibition of P-gp in human MCF7/ADR cells assessed as potentiation of doxorubicin-induced cytotoxicity after 48 hrs by MTT assay; assay type: cell-based; conditions: NCI/ADR-RES
[8] = system: HEK293; assay: Cytotoxicity against HEK293 cells after 48 hrs by MTT assay; assay type: cell-based; conditions: Homo sapiens, HEK293, 48 h
[9] = species on record: Homo sapiens; assay: Inhibition of P-gp in human MCF7/ADR cells assessed as concentration required to restore doxorubicin accumulation in cells after 150 mins by fluorescence assay relative to MCF7 cells; assay type: cell-based
[10] = Competitive inhibition of P-gp in human MCF7/ADR cells after 150 mins in presence of doxorubicin by Dixon plot analysis; assay type: cell-based
[11] = Competitive inhibition of P-gp in human MCF7/ADR cells after 150 mins in presence of doxorubicin by Lineweaver-Burk plot analysis; assay type: cell-based
[12] = species on record: Homo sapiens; assay: Inhibition of P-gp in human MCF7/ADR cells assessed as increase in doxorubicin accumulation in cells after 150 mins by fluorescence assay; assay type: cell-based
[13] = species on record: Homo sapiens; assay: Inhibition of P-gp mediated efflux in human MCF7/ADR cells after 4 hrs by Rh123 dye-based flow cytometric method; assay type: cell-based
[14] = species on record: Homo sapiens; assay: Inhibition of P-gp in human MCF7/ADR cells assessed as potentiation of vincristine-induced cytotoxicity at 10 uM after 48 hrs by MTT assay relative to control; assay type: cell-based
[15] = species on record: Homo sapiens; assay: Inhibition of P-gp in human MCF7/ADR cells assessed as potentiation of doxorubicin-induced cytotoxicity at 1 uM preincubated with cells followed by compound washout and subsequent incubation for 6 hrs prior to addition of doxorubicin and measured after 48 hrs by MTT assay relative to control; assay type: cell-based
[16] = species on record: Homo sapiens; assay: Inhibition of P-gp in human MCF7/ADR cells assessed as increase in doxorubicin accumulation in cells up to 20 uM after 150 mins by fluorescence assay relative to control; assay type: cell-based
[17] = species on record: Homo sapiens; assay: Inhibition of P-gp in human MCF7/ADR cells assessed as potentiation of docetaxel-induced cytotoxicity at 10 uM after 48 hrs by MTT assay relative to control; assay type: cell-based
[18] = system: NCI/ADR-RES; assay: Inhibition of P-gp expression in human MCF7/ADR cells at 5 to 10 uM after 48 hrs by Western blot analysis; assay type: functional, cell-based
[19] = species on record: Homo sapiens; assay: Stimulation of human Pgp ATPase activity expressed in cell membranes at 2.5 uM after 1 hr by P-gp Glo assay relative to control
[20] = species on record: Homo sapiens; assay: Stimulation of human Pgp ATPase activity expressed in cell membranes at 50 uM after 1 hr by P-gp Glo assay relative to control

C=C1[C@H](OC(=O)C(C)C)[C@@H](OC(C)=O)[C@@H](OC(C)=O)C(C)(C)/C=C/[C@H](C)[C@H](OC(=O)c2ccccc2)[C@@]2(O)C[C@@](C)(OC(C)=O)[C@H](OC(C)=O)[C@@H]2[C@H]1OC(=O)C(C)C
fold change (FC) [1]: 10
IC50 [2]: > 100 µM
IC50 [3]: > 100 µM
viability at 48 h, 10 µM [4]: 94.3%
viability at 48 h, 10 µM [5]: 94.5%

C=C1[C@H](OC(=O)C(C)C)[C@@H](OC(C)=O)[C@@H](OC(C)=O)C(C)(C)/C=C/[C@H](C)[C@H](OC(C)=O)[C@@]2(O)C[C@@](C)(OC(C)=O)[C@H](OC(C)=O)[C@@H]2[C@H]1OC(=O)c1ccccc1
fold change (FC) [1]: 10.2
IC50 [2]: > 100 µM
IC50 [3]: > 100 µM
viability at 48 h, 10 µM [4]: 94.6%
viability at 48 h, 10 µM [5]: > 100%

CC(=O)O[C@H]1[C@@H](OC(C)=O)C(C)(C)/C=C/[C@H](C)[C@H](OC(C)=O)[C@@]2(O)C[C@@](C)(OC(C)=O)[C@H](O)[C@@H]2[C@H]2OC(=O)CC[C@@]2(OC(=O)c2ccccc2)[C@@H]1OC(=O)C(C)C
selectivity ratio [6]: 346
fold change (FC) [1]: 13
EC50 [7]: 0.125 µM
IC50 [2]: 64.8 µM
IC50 [8]: 43.1 µM
IC50 [3]: > 100 µM
viability at 48 h, 10 µM [4]: 98.5%
viability at 48 h, 10 µM [5]: > 100%

COc1ccc(CCN(C)CCCC(C#N)(c2ccc(OC)c(OC)c2)C(C)C)cc1OC (stereo not drawn)
Activity [9]: 40 µM
IC50 [2]: 48.9 µM
Ki [10]: 2.92 µM
Ki [11]: 2.88 µM
viability at 48 h, 10 µM [4]: 83.4%
inhibition [12]: Dose-dependent effect
viability at 48 h, 10 µM [5]: 90.2%

C=C1CCC(=O)C(C)(C)/C=C/[C@H](C)C(=O)[C@@]2(OC(C)=O)C[C@H](C)[C@H](O)[C@@H]2[C@H]1OC(=O)c1ccccc1
fold change (FC) [1]: 3.52
IC50 [2]: 70.9 µM
IC50 [3]: 90.9 µM
viability at 48 h, 10 µM [4]: 95.6%
viability at 48 h, 10 µM [5]: 90.4%

C=C1[C@H](OC(C)=O)[C@H]2[C@@H](OC(C)=O)[C@@H](C)C[C@]2(OC(C)=O)C(=O)[C@@H](C)/C=C/C(C)(C)C(=O)[C@H](OC(C)=O)[C@H]1OC(=O)CC
fold change (FC) [1]: 6.65
IC50 [2]: > 100 µM
IC50 [3]: > 100 µM
viability at 48 h, 10 µM [4]: 85.6%
viability at 48 h, 10 µM [5]: 94.8%

CC(=O)O[C@H]1[C@@H](OC(C)=O)C(C)(C)[C@@H]2O[C@H]2[C@H](C)[C@H](OC(C)=O)[C@]2(O)[C@H]3[C@@H](OC(=O)c4ccccc4)[C@@](O)(CCC(=O)O[C@H]3[C@](C)(OC(C)=O)[C@H]2OC(C)=O)[C@@H]1OC(C)=O
fold change (FC) [1]: 0.69
IC50 [2]: > 100 µM
IC50 [3]: > 100 µM
viability at 48 h, 10 µM [4]: 94.9%
viability at 48 h, 10 µM [5]: 93%

CC(=O)O[C@H]1[C@@H](OC(C)=O)C(C)(C)/C=C/[C@H](C)[C@@H](OC(C)=O)[C@@]2(O)C[C@@](C)(OC(C)=O)[C@@H]3OC(=O)CC[C@@](O)([C@@H]1OC(=O)C(C)C)[C@H](OC(=O)c1ccccc1)[C@@H]32
selectivity ratio [6]: 368
fold change (FC) [1]: 17.1
EC50 [7]: 0.145 µM
IC50 [2]: 83.2 µM
IC50 [8]: 53.4 µM
IC50 [3]: 93 µM
viability at 48 h, 10 µM [4]: 93.2%
viability at 48 h, 10 µM [5]: > 100%

C=C1[C@@H](OC(C)=O)[C@@H]2[C@H](OC(=O)c3ccccc3)[C@](C)(OC(=O)C(C)C)C[C@]2(OC(C)=O)C(=O)[C@H](C)/C=C/C(C)(C)[C@H](OC(C)=O)[C@H](OC(C)=O)[C@H]1OC(=O)C(C)C
selectivity ratio [6]: 196
fold change (FC) [1]: 11.2
EC50 [7]: 0.196 µM
IC50 [2]: > 100 µM
IC50 [8]: 38.5 µM
IC50 [3]: > 100 µM
viability at 48 h, 10 µM [4]: 92.3%
viability at 48 h, 10 µM [5]: 91.2%

C=C1[C@H](OC(=O)C(C)C)[C@@H](OC(C)=O)[C@@H](OC(C)=O)C(C)(C)/C=C/[C@H](C)[C@H](OC(=O)c2ccccc2)[C@@]2(O)C[C@@](C)(OC(C)=O)[C@H](OC(C)=O)[C@@H]2[C@H]1OC(=O)CC
selectivity ratio [6]: 378
fold change (FC) [1]: 12.5
EC50 [7]: 0.178 µM
IC50 [2]: > 100 µM
IC50 [8]: 67.2 µM
IC50 [3]: > 100 µM
viability at 48 h, 10 µM [4]: 93.3%
viability at 48 h, 10 µM [5]: 92.8%

C=C1[C@H](OC(=O)C(C)C)[C@@H](OC(C)=O)[C@@H](OC(C)=O)C(C)(C)/C=C/[C@H](C)[C@H](OC(=O)c2ccccc2)[C@@]2(O)C[C@@](C)(OC(C)=O)[C@H](OC(C)=O)[C@@H]2[C@H]1OC(=O)c1ccccc1
selectivity ratio [6]: 661
fold change (FC) [1]: 20.9
EC50 [7]: 0.0929 µM
IC50 [2]: 53.9 µM
IC50 [8]: 61.4 µM
IC50 [3]: > 100 µM
viability at 48 h, 10 µM [4]: 93.2%
viability at 48 h, 10 µM [5]: 97.7%

C=C1[C@H](OC(=O)C(C)C)[C@@H](OC(C)=O)[C@@H](OC(C)=O)C(C)(C)/C=C/[C@H](C)[C@H](O)[C@@]2(O)C[C@@](C)(OC(=O)C(C)C)[C@H](OC(C)=O)[C@@H]2[C@H]1OC(=O)c1ccccc1
selectivity ratio [6]: 512
fold change (FC) [1]: 20.6
EC50 [7]: 0.124 µM
IC50 [2]: > 100 µM
IC50 [8]: 63.8 µM
IC50 [3]: > 100 µM
viability at 48 h, 10 µM [4]: 88%
viability at 48 h, 10 µM [5]: 91.1%

C=C1[C@H](OC(C)=O)[C@H]2[C@@H](OC(C)=O)[C@@H](C)C[C@]2(OC(C)=O)C(=O)[C@@H](C)/C=C/C(C)(C)C(=O)[C@H](OC(C)=O)[C@H]1OC(=O)C(C)C
fold change (FC) [1]: 9.99
IC50 [2]: > 100 µM
IC50 [3]: > 100 µM
viability at 48 h, 10 µM [4]: 91.9%
viability at 48 h, 10 µM [5]: 96.2%

C=C1[C@H](OC(=O)C(C)C)[C@@H](OC(C)=O)[C@@H](OC(C)=O)C(C)(C)/C=C/[C@H](C)[C@H](OC(=O)c2ccccc2)[C@@]2(O)C[C@@](C)(OC(C)=O)[C@H](OC(C)=O)[C@@H]2[C@H]1OC(=O)C(C)CC (stereo partly drawn)
inhibition [13]: Dose-dependent effect
Activity [9]: 10 µM
selectivity ratio [6]: 1060
fold change (FC) [1]: 36.8
EC50 [7]: 0.0927 µM
IC50 [2]: > 100 µM
IC50 [8]: 98.2 µM
fold change (FC) [14]: 2.17
Ki [10]: 0.5 µM
Ki [11]: 0.49 µM
fold change (FC) [15]: 1.43
fold change (FC) [16]: 2.15
IC50 [3]: > 100 µM
viability at 48 h, 10 µM [4]: 91.4%
inhibition [12]: Dose-dependent effect
fold change (FC) [17]: 3.42
inhibition [18]: inactive
viability at 48 h, 10 µM [5]: 91.8%
fold change (FC) [19]: 1.34
fold change (FC) [20]: 2.22

C=C1[C@H](OC(=O)C(C)C)[C@@H](OC(C)=O)[C@@H](OC(C)=O)C(C)(C)/C=C/[C@H](C)C(=O)[C@@]2(O)C[C@@](C)(OC(C)=O)[C@H](OC(C)=O)[C@@H]2[C@H]1OC(=O)c1ccccc1
fold change (FC) [1]: 9.29
IC50 [2]: > 100 µM
IC50 [3]: > 100 µM
viability at 48 h, 10 µM [4]: 92.4%
viability at 48 h, 10 µM [5]: 90.3%

C=C1[C@H](OC(=O)CC)[C@@H](OC(C)=O)[C@@H](OC(C)=O)C(C)(C)/C=C/[C@H](C)[C@H](OC(=O)c2ccccc2)[C@@]2(O)C[C@@](C)(OC(C)=O)[C@H](OC(C)=O)[C@@H]2[C@H]1OC(=O)C(C)C
selectivity ratio [6]: 438
fold change (FC) [1]: 13.5
EC50 [7]: 0.136 µM
IC50 [2]: > 100 µM
IC50 [8]: 59.4 µM
IC50 [3]: > 100 µM
viability at 48 h, 10 µM [4]: 83.3%
viability at 48 h, 10 µM [5]: 92.5%
